Assay results as given in patent publication EP0748792A1 (priority 1994, dated 1995).

What was measured:
[1] = system: white non-linear mice; conditions: administered perorally; species not given; cited from earlier work
[2] = system: non-linear white rats; assay: Subchronic toxicity in rats (2 months); assay type: in vivo
Method: 70 non-linear white rats of both sexes with average stated mass of 72 ± 5 g, divided into 7 groups, were used in the experiment. The first three groups of animals received ketopantothenate in 0.2 ml of distilled water in doses: 13.2 mg/kg (therapeutic dose of calcium D-pantothenate), 132 and 264 mg/kg (doses 10 and 20 times larger than the therapeutic dose) internally every day during the experiment. The next three groups of animals received the same doses of calcium D-pantothenate under the same conditions for comparison. The 7th group was the control one and included intact animals. The weighing of the animals was carried out once a week. Permanent observation on development and state of rats was carried out. […] The growth of the mass of the rats receiving ketopantothenate in different doses was 3.7 - 6.0 % higher than the growth of the mass of rats from the control group (correspondingly to doses). The growth of the mass of the rats receiving calcium D-pantothenate in comparison with the control group was approximately the same.
When the experiment was over the animals were slaughtering and the internal organs were examined visually.

[3] = system: total acetylating capability of the organism; assay: Acetylating capability of white rats (sodium sulfacyl acetylation, arylamine content in urine); assay type: in vivo; conditions: agent 20 mg/kg i.p. 4 days; for Acetylating properties of the organism: Na sulfacyl acetylating in the organism of rats; for Sulfacyl isolation M ± m In acetylated form / Sulfacyl isolation M ± m In free form / Sulfacyl isolation M ± m Total: Na sulfacyl excretion in urine; for % of excretion from the dose In acetylated form / % of excretion from the dose In free form / Concentration in urine In acetylated form / Concentration in urine In free form: Na sulfacyl; for Excretion % from the dose: total Na sulfacyl excretion in urine
Method: It is known that intact animals, receiving sufficient doses of pantothenic acid, have accelerated reactions of arylamine biotransformation. Therefore, there is the possibility to regulate the acetylating processes in the bodies of people and animals. In the examples given below the total acetylating capability of the organism was assessed using the method of quantitative determination of the arylamine content in the urine examined.
As a subject for acetylating, aromatic amines were chosen, as their usage makes it possible to assess both the activity of N-acetylamine transferase and (indirectly) the content of acetyl CoA.
As a subject for examination sodium sulfacyl was chosen. […] 14 animals were included in each group. The examined agent was injected intraperitoneally at a dose of 20 mg/kg. On the 4th day, 4 hours after the last injection of the examined agent, the sodium sulfacyl solution in a dose of 20 mg/kg was injected intraperitoneally. All the rats were separated into exchangeable cages for urine gathering. The collected data were compared with the control groups of animals (group I - only sodium sulfacyl in a dose of 20 mg/kg, and group II - calcium pantothenate).

[4] = system: white non-linear mice; assay: Acute toxicity in mice; assay type: in vivo
Method: The animals were distributed into 7 groups, 6 animals in each group.
The mice were under observation for 14 days. Starting from the dose of 6g/kg in the first 2 hours after the agent administration the intoxication symptoms were observed: inertia, quickened breathing. Then these symptoms passed without consequences. The mice in all groups were practically healthy, no deviations in the state and behavior of the animals were observed.

| Molecule | Mass Final ([2]; rat, in vivo, 13.2 mg/kg) | Mass growth during the experiment ([2]; rat, in vivo, 13.2 mg/kg) | Mass growth during the experiment % to the control ([2]; rat, in vivo, 13.2 mg/kg) | Mass Final ([2]; rat, in vivo, 132 mg/kg) | Mass growth during the experiment ([2]; rat, in vivo, 132 mg/kg) | Mass growth during the experiment % to the control ([2]; rat, in vivo, 132 mg/kg) | Mass Final ([2]; rat, in vivo, 264 mg/kg) | Mass growth during the experiment ([2]; rat, in vivo, 264 mg/kg) | Mass growth during the experiment % to the control ([2]; rat, in vivo, 264 mg/kg) | Acetylating properties of the organism [3] | Sulfacyl isolation M ± m In acetylated form ([3]; sulfacyl 20 mg/kg i.p.) | Sulfacyl isolation M ± m In free form ([3]; sulfacyl 20 mg/kg i.p.) | Sulfacyl isolation M ± m Total ([3]; sulfacyl 20 mg/kg i.p.) | % of excretion from the dose In acetylated form ([3]; rats) | % of excretion from the dose In free form ([3]; rats) | Concentration in urine In acetylated form ([3]; rats) | Concentration in urine In free form ([3]; rats) | Excretion % from the dose [3] | further results |
| --- | --- | --- | --- | --- | --- | --- | --- | --- | --- | --- | --- | --- | --- | --- | --- | --- | --- | --- | --- |
| CC(C)(CO)[C@@H](O)C(=O)NCCC(=O)O [Ca D-pantothenate, calcium D-pantothenate, reference compound] | 187.5 ± 18.4 | 117.2 ± 7.7 g | 104.2% | 193.0 ± 14.6 | 118.7 ± 10.4 g | 105.3% | 186.1 ± 16.2 | 114.9 ± 8.8 g | 102.2% | 24.0 | 0.67 ± 0.04 | 2.12 ± 0.09 | 2.79 ± 0.19 | 22.3 ± 1.8% | 70.7 ± 6.0% | 0.172 mg/mL | 0.54 mg/mL | 93.0% | LD50 [1]: 5920 mg/kg |
| calcium ketopantothenate [Ca ketopantothenate] | 187.6 ± 12.5 | 116.6 ± 8.2 g | 103.7% | 193.6 ± 17.3 | 119.3 ± 10.3 g | 106.0% | 190.1 ± 21.0 | 117.6 ± 11.0 g | 104.5% | 25.9 | 0.73 ± 0.05 | 2.09 ± 0.17 | 2.82 ± 0.19 | 23.1 ± 1.8% | 66.1 ± 3.2% | 0.221 mg/mL | 0.63 mg/mL | 89.2% | irritation of internal organs (visual examination) ([2]; rat, in vivo): No irritation; toxicity when used over a prolonged period ([2]; rats, 13.2, 132 and 264 mg/kg internally every day, 2 months): not toxic; dose from which intoxication symptoms (inertia, quickened breathing) were observed ([4]; mice, single internal dose, first 2 hours after administration, symptoms passed without consequences): ≥ 6000 mg/kg; dose that was not toxic ([4]; mouse, in vivo, po, 336 h): 8000 mg/kg; total acetylating capability of the organism of white rats (N-acetylation of aromatic amines) ([3]; rats): increased significantly; excretion of acetylated product in comparison with the control group ([3]; rats, sulfacyl 20 mg/kg i.p.): tripled; excretion of free product, lower than the control group ([3]; rats, sulfacyl 20 mg/kg i.p.): 10% |
